Test results as given in US12295936B2, “Immunomodulating urea azalides” (Zoetis Services LLC, priority 2020, dated 2025).
≈ marks a conversion by molar mass, not a printed value.

Legend:
IL-6 = test: LPS-stimulated whole bovine blood assay, MSD cytokine detection; assay type: cell-based; conditions: Bos taurus, LPS-stimulated bovine whole blood; read-out: IL-6 (IC50 μM)
Excerpt: In order to correlate RNA sequencing data to cytokine changes the whole blood assay was utilized. […] The enhancement result represents an overall stimulation of cytokine levels due to cellular stress or potential toxicity with increasing concentrations of the compound, representing a typical bell shape response curve for immunomodulatory activity.

IL-1β = test: as above; assay type: cell-based; conditions: overstimulation of IL-1β, LPS-stimulated bovine whole blood
P. multocida 46572 = test: In vivo mouse lung infection challenge model (murine efficacy); set-up: species or system CD-1 female mice; conditions: 20 mg/kg subcutaneous, P. multocida challenge; harmonized against the comparative vehicle survival rate
Method: The challenge organism was P. multocida 46572. Target challenge concentration was 5×10^2 CFU/mouse. Isolated colonies from overnight growth (37° C. with 5% CO2) on trypticase soy agar (TSA II) blood plates were transferred to room temperature Brain Heart Infusion Broth (BHIB). The broth culture was incubated 3.5-4 hours to approximately mid-log phase of growth, as measured by forward light scatter at 600 nm (OD600, 0.200). The culture was centrifuged to collect the bacterial pellet. The pellet was re-suspended in BHIB and adjusted to provide an approximate concentration of 2.7 log^10 colony forming units (CFU) in 0.04 mL at the highest concentration. The challenge inoculum concentration was confirmed by serial dilutions of the inoculum for CFU enumeration. On Day −5, CD-1 female mice were received. Mice were given standard rodent diet and water ad libitum. On Day 0, bacterial inoculum (0.04 mL) was administered to each mouse (n=36) intranasally. Compounds of the invention were dosed at 20 mg/kg (0.1 mL) in a buffered (˜pH 5.4) propylene glycol, monothioglycerol and water solution by subcutaneous injection. Animals were observed from Days 1-10. The study was terminated on Day 10. In addition, some treatment groups were sampled at 6, 24, and 48 hours post bacterial challenge for RNA sequence analysis of lung tissue.
The murine efficacy model (P. multocida challenge) was optimized, and the treatment group size was powered to be able to observe statistically significant improvement of survival to expected ranges for immunomodulatory compounds. The experimental design was a randomized complete block design. Mice were individually identified and treatment groups comingled within a cage, with every treatment group equally represented across cages. Mortality was the primary variable. Mortality data was analyzed using a generalized mixed model with fixed effect of treatment and random effect of block. Survival time was also analyzed using the SAS PHREG (survival analysis) procedure to examine whether there were significant differences between treatment groups and the control group. Numerous compounds of the invention and M9 (positive control) were tested in this model at a dose of 20 mg/kg. Typical percent survival for no treatment control is in the range of 0-20% based on study to study variation in challenge inoculum and rate of infection. […] Mouse survival for M9 was about 90-100%, further supporting its antibacterial properties against the bacterial strain (Table 3). Survival values presented are harmonized against the comparative vehicle survival rate.

TNF-α = test: LPS-stimulated whole bovine blood assay, MSD cytokine detection; assay type: cell-based; conditions: Bos taurus, LPS-stimulated bovine whole blood; read-out: TNF-α (IC50 μM)
[1] = tested on: BRD pathogens, M. haemolytica and P. multocida; test: MIC screening panel of BRD pathogens (antibacterial / non-antibacterial); conditions: read-out: antibacterial / non-antibacterial (MIC for the BRD pathogens)
P. multocida = test: Murine P. multocida intranasal challenge study with lung tissue RNA sequence analysis; assay type: in vivo, mice; conditions: subcutaneous 18 hours after challenge (5×10^3 CFU/mouse): tulathromycin 16 mg/kg, M9 32 mg/kg, ceftiofur 9 mg/kg; placebo 0%
Method: In one murine P. multocida intranasal challenge study, mice were administered tulathromycin (16 mg/kg; T02), M9 (32 mg/kg; T03), or ceftiofur (9 mg/kg; T04) by subcutaneous injection 18 hours after bacterial challenge (5×10^3 CFU/mouse) for lung tissue RNA sequence analysis. Survival at Day 7 was about 80%, 50%, and 90% for T02, T03, and T04, respectively, compared to placebo at 0%. Differential gene expression from total lung tissue RNA sequence analysis indicated at least 226 unique genes were up or down regulated (with significance) for T03. Output from ingenuity pathway analysis of these unique genes predicted major upstream regulators of the involved pathways. Data was analyzed based on the number of genes being modulated in the same direction that were associated with a given upstream regulator. An activation z-score of 2 or greater is considered significant and the direction change is indicated by +(activated) or − (inhibited). The top 5 pathways included: IL-9 signaling, glucocorticoid receptor signaling, prolactin signaling, JAK STAT signaling, and IL-17 signaling. The top 6 upstream regulators (activation z-score) included: lipopolysaccharide (−6.725), TNF (−4.669), IFNG (−5.759), IL-1β (−5.947), STAT1 (−2.787), and poly rl:rC-RNA (−5.289). Even though this study was run in the murine model, the top upstream regulators identified as being modulated by M9 include an almost ubiquitous overlap with the pathways identified in the natural disease study as being key mediators in BRD, and therefore is modulating highly relevant pathways in BRD pathobiology.

H. somni = test: In-vitro MIC model (CLSI broth micro-dilution); conditions: Histophilus somni

MIC (H. somni)	Compound	IC50 (IL-6)	IL-1β OS of LPS (IL-1β)	Mouse Murine Percent Survival (P. multocida 46572)	IC50 (TNF-α)	MIC [1]	Survival at Day 7 (P. multocida)
	CC[C@H]1OC(=O)[C@H](C)[C@@H](O[C@H]2C[C@@](C)(OC)[C@@](C)(O)[C@H](C)O2)[C@H](C)[C@@H](O[C@@H]2O[C@H](C)C[C@H](N(C)C(=O)N(C)c3ccc(C(F)(F)F)cc3)[C@H]2O)[C@](C)(O)C[C@@H](C)CN[C@H](C)[C@@H](O)[C@]1(C)O [Example B-13, 1-((2S,3R,4S,6R)-2-(((2R,3S,4R,5R,8R,10R,11R,12S,13S,14R)-2-ethyl-3,4,10-trihydroxy-13-(((2R,4R,5S,6S)-5-hydroxy-4-methoxy-4,5,6-trimethyltetrahydro-2H-pyran-2-yl)oxy)-3,5,8,10,12,14-hexamethyl-15-oxo-1-oxa-6-azacyclopentadecan-11-yl)oxy)-3-hydroxy-6-methyltetrahydro-2H-pyran-4-yl)-1,3-dimethyl-3-(4-(trifluoromethyl)phenyl)urea]	51 µM	16 µM	48%	14 µM	> 64 µg/mL	
	CCCNC[C@]1(O)[C@H](C)O[C@@H](O[C@H]2[C@H](C)[C@@H](O[C@@H]3O[C@H](C)C[C@H](N(C)C(=O)N(C)c4ccc(C(F)(F)F)cc4)[C@H]3O)[C@](C)(O)C[C@@H](C)CN[C@H](C)[C@@H](O)[C@](C)(O)[C@@H](CC)OC(=O)[C@@H]2C)C[C@@]1(C)OC [Example H-13, 1-((2S,3R,4S,6R)-2-(((2R,3S,4R,5R,8R,10R,11R,12S,13S,14R)-2-ethyl-3,4,10-trihydroxy-13-(((2R,4R,5S,6S)-5-hydroxy-4-methoxy-4,6-dimethyl-5-((propylamino)methyl)tetrahydro-2H-pyran-2-yl)oxy)-3,5,8,10,12,14-hexamethyl-15-oxo-1-oxa-6-azacyclopentadecan-11-yl)oxy)-3-hydroxy-6-methyltetrahydro-2H-pyran-4-yl)-1,3-dimethyl-3-(4-(trifluoromethyl)phenyl)urea]	9 µM	6 µM	59%	12 µM	> 64 µg/mL	
	CCCNC[C@]1(O)[C@H](C)O[C@@H](O[C@H]2[C@H](C)[C@@H](O[C@@H]3O[C@H](C)C[C@H](N(C)C(=O)N(c4ccccc4)c4ccccc4)[C@H]3O)[C@](C)(O)C[C@@H](C)CN[C@H](C)[C@@H](O)[C@](C)(O)[C@@H](CC)OC(=O)[C@@H]2C)C[C@@]1(C)OC [Example H-39, 1-((2S,3R,4S,6R)-2-(((2R,3S,4R,5R,8R,10R,11R,12S,13S,14R)-2-ethyl-3,4,10-trihydroxy-13-(((2R,4R,5S,6S)-5-hydroxy-4-methoxy-4,6-dimethyl-5-((propylamino)methyl)tetrahydro-2H-pyran-2-yl)oxy)-3,5,8,10,12,14-hexamethyl-15-oxo-1-oxa-6-azacyclopentadecan-11-yl)oxy)-3-hydroxy-6-methyltetrahydro-2H-pyran-4-yl)-1-methyl-3,3-diphenylurea]	19 µM	6 µM	44%	21 µM	> 64 µg/mL	
	CCCNC[C@]1(O)[C@H](C)O[C@@H](O[C@H]2[C@H](C)[C@@H](O[C@@H]3O[C@H](C)C[C@H](N(Cc4ccc(OC)cc4)C(=O)N(C)c4ccccc4)[C@H]3O)[C@](C)(O)C[C@@H](C)CN[C@H](C)[C@@H](O)[C@](C)(O)[C@@H](CC)OC(=O)[C@@H]2C)C[C@@]1(C)OC [Example H-60, 1-((2S,3R,4S,6R)-2-(((2R,3S,4R,5R,8R,10R,11R,12S,13S,14R)-2-ethyl-3,4,10-trihydroxy-13-(((2R,4R,5S,6S)-5-hydroxy-4-methoxy-4,6-dimethyl-5-((propylamino)methyl)tetrahydro-2H-pyran-2-yl)oxy)-3,5,8,10,12,14-hexamethyl-15-oxo-1-oxa-6-azacyclopentadecan-11-yl)oxy)-3-hydroxy-6-methyltetrahydro-2H-pyran-4-yl)-1-(4-methoxybenzyl)-3-methyl-3-phenylurea]	7 µM	3 µM	72%	5 µM	> 64 µg/mL	
	CCCNC[C@]1(O)[C@H](C)O[C@@H](O[C@H]2[C@H](C)[C@@H](O[C@@H]3O[C@H](C)C[C@H](N(C)C(=O)N(C)c4ccc(C(F)(F)F)cc4)[C@H]3O)[C@](C)(O)C[C@@H](C)CN(C)[C@H](C)[C@@H](O)[C@](C)(O)[C@@H](CC)OC(=O)[C@@H]2C)C[C@@]1(C)OC [Example H-100, 1-((2S,3R,4S,6R)-2-(((2R,3S,4R,5R,8R,10R,11R,12S,13S,14R)-2-ethyl-3,4,10-trihydroxy-13-(((2R,4R,5S,6S)-5-hydroxy-4-methoxy-4,6-dimethyl-5-((propylamino)methyl)tetrahydro-2H-pyran-2-yl)oxy)-3,5,6,8,10,12,14-heptamethyl-15-oxo-1-oxa-6-azacyclopentadecan-11-yl)oxy)-3-hydroxy-6-methyltetrahydro-2H-pyran-4-yl)-1,3-dimethyl-3-(4-(trifluoromethyl)phenyl)urea]	10 µM	16 µM	19%	6 µM	> 64 µg/mL	
	CC[C@H]1OC(=O)[C@H](C)[C@@H](O[C@H]2C[C@@](C)(OC)[C@](O)(CN3CC(N4CCOCC4)C3)[C@H](C)O2)[C@H](C)[C@@H](O[C@@H]2O[C@H](C)C[C@H](N(C)C(=O)N(C)c3ccccc3)[C@H]2O)[C@](C)(O)C[C@@H](C)CN[C@H](C)[C@@H](O)[C@]1(C)O [Example J-4, 1-((2S,3R,4S,6R)-2-(((2R,3S,4R,5R,8R,10R,11R,12S,13S,14R)-2-ethyl-3,4,10-trihydroxy-13-(((2R,4R,5S,6S)-5-hydroxy-4-methoxy-4,6-dimethyl-5-((3-morpholinoazetidin-1-yl)methyl)tetrahydro-2H-pyran-2-yl)oxy)-3,5,8,10,12,14-hexamethyl-15-oxo-1-oxa-6-azacyclopentadecan-11-yl)oxy)-3-hydroxy-6-methyltetrahydro-2H-pyran-4-yl)-1,3-dimethyl-3-phenylurea]	3 µM	1 µM	5%	7 µM	> 64 µg/mL	
	CO/N=C(\C(=O)N[C@@H]1C(=O)N2C(C(=O)O)=C(CSC(=O)c3ccco3)CS[C@H]12)c1csc(N)n1 [ceftiofur]						~90%
0.06 to 1 µg/mL (≈ 0.167 to 2.78 µM)	CCN1CCN(c2cc3c(cc2F)c(=O)c(C(=O)O)cn3C2CC2)CC1 [enrofloxacin]						
0.12 to 2 µg/mL (≈ 0.335 to 5.58 µM)	CS(=O)(=O)c1ccc([C@@H](O)[C@@H](CF)NC(=O)C(Cl)Cl)cc1 [florfenicol]						
